The source made the active and inactive calls. The rule behind the calls is not given here.
How the values were obtained:
[1] = system: Lipid bilayer; assay: Induction of membrane redistribution in large unilamellar vesicles liposome model assessed as mean shortest distance between BODIPY-FL C5-GM1 and BODIPY-542/563 C11-CHOL at 5 uM by FRET assay (reference value: 65 +/- 1 Angstrom); conditions: filed as modulator
[2] = system: SH-SY5Y; assay: Protection against human SH-SY5Y cells assessed as decrease in ADDL-induced cytosolic calcium level at 5 uM incubated for 15 mins by Fluo-4 AM dye based scanning confocal microscopic analysis; assay type: functional; set-up: scale not given: the % may be the effect or the level left; conditions: 0.25 h
[3] = system: Lipid bilayer; assay: Induction of membrane redistribution in large unilamellar vesicles liposome model assessed as mean shortest distance between BODIPY-FL-CHOL and BODIPY-542/563 C11-CHOL at 5 uM by FRET assay relative to control; conditions: filed as modulator
[4] = system: Lipid bilayer; assay: Binding affinity to large unilamellar vesicles liposome model assessed as increase in LUV diameter incubated for 15 mins by light scattering analysis
[5] = system: Lipid bilayer; assay: Induction of membrane redistribution in large unilamellar vesicles liposome model assessed as mean shortest distance between BODIPY-FL-CHOL and BODIPY-542/563 C11-CHOL at 5 uM by FRET assay (reference value: 72 +/- 1 Angstrom); conditions: filed as modulator
[6] = system: SH-SY5Y; assay: Protection against human SH-SY5Y cells assessed as decrease in ADDL-induced cytosolic calcium level incubated for 15 mins by Fluo-4 AM dye based scanning confocal microscopic analysis; assay type: functional, cell-based; conditions: dose 0.05-5 µM
[7] = system: Lipid bilayer; assay: Induction of membrane redistribution in large unilamellar vesicles liposome model assessed as mean shortest distance between BODIPY-FL-SM and BODIPY-542/563 C11-CHOL at 5 uM by FRET assay (reference value: 69 +/- 1 Angstrom); conditions: filed as modulator
[8] = system: Lipid bilayer; assay: Binding affinity to large unilamellar vesicles liposome model assessed as saturation concentration by measuring increase in LUV mass incubated for 15 mins by light scattering analysis; conditions: filed as modulator
[9] = system: Lipid bilayer; assay: Binding affinity to large unilamellar vesicles liposome model assessed as increase in LUV size incubated for 15 mins by light scattering analysis; conditions: filed as modulator
[10] = system: Lipid bilayer; assay: Binding affinity to large unilamellar vesicles liposome model assessed as saturation concentration by measuring increase in incorporated compound mass incubated for 15 mins by light scattering analysis; conditions: filed as modulator
[11] = system: Lipid bilayer; assay: Induction of membrane redistribution in large unilamellar vesicles liposome model assessed as mean shortest distance between BODIPY-FL C5-GM1 and BODIPY-542/563 C11-CHOL at 5 uM by FRET assay relative to control; conditions: filed as modulator
[12] = system: Lipid bilayer; assay: Induction of membrane redistribution in large unilamellar vesicles liposome model assessed as mean shortest distance between BODIPY-FL-DOPC and BODIPY-542/563 C11-CHOL at 5 uM by FRET assay (reference value: 70 +/- 2 Angstrom); conditions: filed as modulator
[13] = system: Lipid bilayer; assay: Displacement of alpha-synuclein from DMPS large unilamellar vesicles liposome model incubated for 15 mins by Far-UV CD spectroscopy; conditions: filed as modulator, dose <= 70.0 µM
[14] = system: Lipid bilayer; assay: Binding affinity to large unilamellar vesicles liposome model assessed as increase in transition temperature […] (reference value: 24.5 +/- 2 degreeC); conditions: filed as modulator
[15] = system: Lipid bilayer; assay: Binding affinity to large unilamellar vesicles liposome model assessed as saturation concentration by microfluidic analysis; conditions: filed as modulator

| Activity [1] [Angstrom] | Activity [3] [%] | Activity [4] | Activity [5] [Angstrom] | Activity [7] [Angstrom] | Activity [8] [µM] | Activity [9] | Activity [10] [µM] | Activity [11] [%] | Activity [12] [Angstrom] | Activity [13] | T [14] [°C] | Activity [15] [µM] | SMILES | Activity [2] [%] | Activity [6] |
| --- | --- | --- | --- | --- | --- | --- | --- | --- | --- | --- | --- | --- | --- | --- | --- |
| 72 | 57 | inactive | 64 | 72 | 12 | Active | 15 | 50 | 68 | Dose-Dependent Effect | 35 | – | CC(C)[C@@H](CC[C@@H](C)[C@H]1CC[C@H]2[C@@H]3[C@H](O)C[C@H]4C[C@@H](NCCCNCCCCN)CC[C@]4(C)[C@H]3CC[C@]12C)OS(=O)(=O)O [SQUALAMINE] | 100 | Dose-Dependent Effect |
| 73 | 64 | inactive | 63 | 69 | 43 | Active | 43 | 57 | 67 | Dose-Dependent Effect | 46 | – | C[C@H](CCC[C@H](C)C(=O)O)[C@H]1CC[C@H]2[C@@H]3[C@H](O)C[C@H]4C[C@@H](NCCCNCCCCNCCCN)CC[C@]4(C)[C@H]3CC[C@]12C | 100 | Dose-Dependent Effect |
| 79 | 100 | inactive | 58 | 67 | 35 | Active | 35 | 100 | 68 | Dose-Dependent Effect | 46 | 28 | CC(C)[C@@H](CC[C@@H](C)[C@H]1CC[C@H]2[C@@H]3[C@H](O)C[C@H]4C[C@@H](NCCCNCCCCNCCCN)CC[C@]4(C)[C@H]3CC[C@]12C)OS(=O)(=O)O [TRODUSQUEMINE] | 100 | Dose-Dependent Effect |

— ChEMBL document CHEMBL5346960, “Quantitative Attribution of the Protective Effects of Aminosterols against Protein Aggregates to Their Chemical Structures and Ability to Modulate Biological Membranes” (2023)
